Results from patent US8071604B2, “Thio-substituted arylmethanesulfinyl derivatives” (Cephalon France, priority 2007, dated 2011).

Legend:
rats = experiment: Evaluation of wake promoting activity in rats (EEG/EMG sleep/wake scoring); format: in vivo, rat (adult male Wistar); conditions: i.p. route, 100 mg/kg dose; for Mean AUC0-3 h values, Test compound Mean: n = 8 rats per test compound, time awake in first 3 hrs following dosing; for wakefulness as compared to vehicle-treated control groups: rats, p<0.05 vs vehicle
Procedure: Methodology: Evaluation of Wake Promoting Activity in Rats
The methodology utilized for evaluating wake promoting activity of test compounds is based on that described by Edgar and Seidel, Journal of Pharmacology and Experimental Therapeutics, 283:757-769, 1997, and incorporated herein in its entirety by reference.
Animal Surgery. Adult, male Wistar rats (275-320 g from Charles River Laboratories, Wilmington, Mass.) were anesthetized (Nembutal, 45 mg/kg, ip.) and surgically prepared with implants for recording of chronic EEG (encephalographic) and EMG (electromyographic) recording. The EEG implants were made from commercially available components (Plastics One, Roanoke, Va.). EEG signals were recorded from stainless steel screw electrodes: 2 frontal (+3.0 mm AP from bregma, ±2.0 mm ML), and 2 occipital (−4.0 mm AP from bregma, ±2.0 mm ML). Two Teflon-coated stainless steel wires were positioned under the nuchal trapezoid muscles for EMG recording. All electrode leads were inserted into a connector pedestal and the pedestal affixed to the skull by application dental acrylic. Antibiotic was administered post surgically and antibiotic cream was applied to the wound edges to prevent infection. At least one week elapsed between surgery and recording.
Recording environment. Postsurgically, rats were housed in pairs in an isolated room. Food and water were available ad libitum, ambient temperature was 21° C., and humidity was 55%. At least 24 hrs prior to recording, they were placed in Nalgene containers (31×31×31 cm) with a wire-grid top, and entry to the room was prohibited during the day of recording except for dosing. The containers were placed on a rack with two shelves, 4 containers per shelf. Fluorescent overhead room lights were set to a 24 hr. light/dark cycle (on at 7 AM, off at 7 PM). Light levels inside the containers were 38 and 25 lux for the top and bottom shelves respectively. Background white-noise (68 db inside the containers) was present in the room to mask ambient sounds.
Data acquisition. EEG and EMG signals were led via cables to a commutator (Plastics One) and then to pre-amplifiers (model 1700, A-M Systems, Carlsborg, Wash.). EEG and EMG signals were amplified (10K and 1K respectively) and bandpass filtered between 0.3 and 500 Hz for EEG and between 10 and 500 Hz for EMG. […] On the day of dosing, data was recorded for 6 to 10 hours beginning at 11 AM.
Drug administration and study design. Compounds were evaluated on groups of from 4 to 8 rats carried out over one or two separate test sessions. […]
Sleep/wake scoring. Sleep and wake activity were determined manually using ICELUS software. […]

| Structure (SMILES) | melting point [°C] | Mean AUC0-3 h values, Test compound Mean (rats) | wakefulness as compared to vehicle-treated control groups (rats) |
| --- | --- | --- | --- |
| NC(=O)C[S+]([O-])Cc1ccccc1COc1ccccc1 (centres unmarked) | 153 to 154 |  |  |
| CC(=O)N1CCN(C(=O)C[S+]([O-])Cc2ccc(Oc3ccc(Cl)c(Cl)c3)cc2)CC1 (centres unmarked) [Example 22, 1-(4-Acetyl-piperazin-1-yl)-2-[4-(3,4-dichloro-phenoxy)-phenylmethanesulfinyl]-ethanone] |  | 162.7 % of waiking time × hr | significantly greated wakefulness |
| NC(=O)C[S+]([O-])Cc1ccccc1NC(=O)c1ccc(Cl)cc1 (centres unmarked) [Example 113, N-(2-Carbamoylmethanesulfinylmethyl-phenyl)-4-chloro-benzamide] |  | 99.0 % of waiking time × hr | significantly greated wakefulness |
